According to patent US11364275B2, “Linear lipopeptide paenipeptins and methods of using the same” (priority 2017, dated 2022):
Where two headings read alike, the source gives them in different places. Where a SMILES comes first, the peptide text is derived from it. [ ]: non-standard residue; d: D form. The star is where a group is joined. ξ: configuration not given here. Thr(3ξ) = CC(O)[C@H](N)C(=O)O; Decanoyl = CCCCCCCCCC(=O)*; Heptanoyl = CCCCCCC(=O)*; Octanoyl = CCCCCCCC(=O)*; Dab = NCC[C@H](N)C(=O)O; ξDab = NCCC(N)C(=O)O; Bz = O=C(c1ccccc1)*

Experiments:
[1] = test system: Acinetobacter baumannii ATCC 19606; assay type: cell-based
Procedure: (§3) The minimum inhibitory concentration (MIC) of paenipeptin analogues was determined using the broth microdilution method (Wirker, M. A. Methods for Dilution Antimicrobial Susceptibility Tests for Bacteria that Grow Aerobically: Approved Standard M07-A8; Clinical and Laboratory Standards Institute, Wayne, Pa., 2009). Seven reference strains (Acinetobacter baumannii ATCC 19606, Escherichia coli ATCC 25922, Klebsiella pneumoniae ATCC 13883, Pseudomonas aeruginosa ATCC 27853, Enterococcus faecium ATCC 19434, Staphylococcus aureus ATCC 29213 and methicillin-resistant S. aureus ATCC 43300) were subjected to MIC testing.
(§4) Paenipeptin analogues were two-fold diluted in tryptic soy broth (TSB; Becton Dickinson) and mixed with an equal volume of bacterial suspensions in TSB containing approximately 1.5×10^5 colony-forming units (CFU)/mL in a clear UV-sterilized 96-well microtiter plate (NBS, Corning Inc., Corning, N.Y.). […] The microtiter plate was incubated at 37° C. for 18-20 h.

[2] = test system: Escherichia coli ATCC 25922; assay type: cell-based
Procedure: as §3, §4

[3] = test system: Klebsiella pneumoniae ATCC 13883; assay type: cell-based
Procedure: as §3, §4

[4] = test system: Pseudomonas aeruginosa ATCC 27853; assay type: cell-based
Procedure: as §3, §4

[5] = test system: Enterococcus faecium ATCC 19434; assay type: cell-based
Procedure: as §3, §4

[6] = test system: Staphylococcus aureus ATCC 29213; assay type: cell-based
[7] = test system: methicillin-resistant S. aureus ATCC 43300; assay type: cell-based, Staphylococcus aureus
Procedure: as §3, §4

[8] = test system: rabbit red blood cells; experiment: Hemolytic activity; assay type: cell-based; conditions: relative to Triton X-100
Procedure: Hemolytic activity was evaluated using defibrinated rabbit blood in a 96-well plate as described previously. A nonionic surfactant Triton X-100, which is capable of lysing red blood cells (RBCs), was used at 0.1% as a positive control. Briefly, rabbit blood (Hardy Diagnostics, Santa Maria, Calif.) was diluted with phosphate buffered saline (PBS; pH 7.2) at a 1:19 ratio (v/v) and free hemoglobin was removed by washing RBCs and centrifugation four times at 1,000×g at 4° C. for 5 min. Aliquots (50 μL) of washed RBCs were incubated with 150 μL two-fold dilutions of paenipeptin analogues at final concentrations of 16-128 μg/mL at 37° C. for 30 min in a microtiter plate (NBS, Corning Inc.). After incubation, treated RBCs were gently mixed by repeated pipetting. Aliquots (20 μL) of the cell suspension were mixed with 200 μL PBS in a new 96-well plate and centrifuged at 2,204×g for 10 min. The supernatant was transferred to a new 96-well plate for absorbance measurement at 415 nm using a Cell Imaging Multimode Reader (Cytation 3, BioTek; Winooski, Vt.). The percent hemolysis observed after exposure to each paenipeptin analogue was calculated relative to Triton X-100.

[9] = test system: Acinetobacter baumannii ATCC 19606; experiment: MIC of antibiotics with or without paenipeptin analogues (potentiation); assay type: cell-based; conditions: A. baumannii ATCC 19606; for Sensitization factor (rifampicin): MIC without / with 4 μg/mL paenipeptin
Source text: (§1) Gram-negative bacteria, including Acinetobacter and Klebsiella, are intrinsically resistant to the hydrophobic antibiotic rifampicin.

[10] = test system: Klebsiella pneumoniae ATCC 13883; experiment: as above; assay type: cell-based; conditions: K. pneumoniae ATCC 13883; for Sensitization factor (rifampicin): MIC without / with 4 μg/mL paenipeptin
Source text: as §1

[11] = test system: P. aeruginosa ATCC 27853; assay type: cell-based, Pseudomonas aeruginosa
Source text: (§2) The surviving cells from each antimicrobial concentration with no visible growth were enumerated by plating on tryptic soy agar (TSA). MBC was defined as the lowest concentration of the antimicrobial agent that led to at least a 99.9% reduction in the number of viable bacterial cells relative to the initial inoculum. There were three independent experiments with one replicate in each experiment.

[12] = test system: S. aureus ATCC 29213; assay type: cell-based, Staphylococcus aureus
Source text: as §2

[13] = test system: S. aureus ATCC 43300; assay type: cell-based, Staphylococcus aureus
Source text: as §2

| SMILES | MIC of rifampicin at 2 μg/mL of paenipeptin analogue [9] [μg/ml] | MIC of rifampicin at 2 μg/mL of paenipeptin analogue [10] | MIC of rifampicin at 4 μg/mL of paenipeptin analogue [10] | MIC ([1]; ATCC 19606) [mg/L] | MIC ([3]; ATCC 13883) [mg/L] | MIC ([5]; ATCC 19434) [mg/L] | MIC ([6]; ATCC 29213) [mg/L] | MIC ([7]; ATCC 43300) [mg/L] | MIC of rifampicin at 4 μg/mL of paenipeptin analogue [9] | MIC ([2]; ATCC 25922) [mg/L] | MIC ([4]; ATCC 27853) [mg/L] | Hemolysis ([8]; 16 μg/mL) [%] | Hemolysis ([8]; 32 μg/mL) [%] | Hemolysis ([8]; 64 μg/mL) [%] | Hemolysis ([8]; 128 μg/mL) [%] | Sensitization factor (rifampicin) [9] | Sensitization factor (rifampicin) [10] | Minimum inhibitory concentration ([2]; ATCC 25922) [mg/L] | Minimum inhibitory concentration ([6]; ATCC 29213) [mg/L] | MBC [11] [mg/L] | further results |
| --- | --- | --- | --- | --- | --- | --- | --- | --- | --- | --- | --- | --- | --- | --- | --- | --- | --- | --- | --- | --- | --- |
| CC[C@H](C)[C@H](NC(=O)[C@H](CCN)NC(=O)c1ccccc1)C(=O)N[C@@H](CCN)C(=O)N[C@H](Cc1ccccc1)C(=O)N[C@@H](CC(C)C)C(=O)N[C@@H](CCN)C(=O)N[C@@H](C(=O)N[C@@H](CC(C)C)C(=O)N[C@@H](CO)C(N)=O)C(C)C [Analogue 14] (Bz-[Dab]I[Dab][dF]L[Dab][dV]LS-NH2) | 0.03125 | 0.0078 μg/ml | 0.00195-0.0039 μg/ml | – | – | – | – | – | – | – | – | 0.22 ± 0.17 | 0.71 ± 0.82 | 1.14 ± 1.05 | 0.70 ± 0.34 | 2,048-4,096 | 4,096-8,192 | – | – | – | MIC ([1]; A. baumannii ATCC 19606, TSB): >32 mg/L; MIC ([2]; E. coli ATCC 25922, TSB): 16 to 32 mg/L; MIC ([3]; K. pneumoniae ATCC 13883, TSB): >32 mg/L; MIC ([4]; P. aeruginosa ATCC 27853, TSB): 8 to 32 mg/L; MIC ([5]; E. faecium ATCC 19434, TSB): >32 mg/L; MIC ([6]; S. aureus ATCC 29213, TSB): >32 mg/L; MIC ([7]; S. aureus ATCC 43300, TSB): >32 mg/L |
| CCCCCCC(=O)N[C@@H](CCN)C(=O)N[C@H](C(=O)N[C@@H](CCN)C(=O)N[C@H](Cc1ccccc1)C(=O)N[C@@H](CC(C)C)C(=O)N[C@@H](CCN)C(=O)N[C@@H](C(=O)N[C@@H](CC(C)C)C(=O)N[C@@H](CO)C(N)=O)C(C)C)C(C)C [Analogue 2] (Heptanoyl-[Dab]V[Dab][dF]L[Dab][dV]LS-NH2) | 0.125 | 0.0156 μg/ml | 0.0039 μg/ml | >32 | >32 | >32 | >32 | >32 | 0.0313-0.0625 μg/ml | – | – | −0.17 ± 0.19 | 0.32 ± 0.74 | 0.79 ± 0.63 | 0.95 ± 0.45 | 256-512 | 4,096 | – | – | – | – |
| CCCCCCC(=O)N[C@@H](CCN)C(=O)N[C@H](C(=O)N[C@@H](CCN)C(=O)N[C@H](Cc1ccccc1)C(=O)N[C@@H](CC(C)C)C(=O)N[C@@H](CCN)C(=O)N[C@H](CC(C)C)C(=O)N[C@@H](CC(C)C)C(=O)N[C@@H](CO)C(N)=O)[C@@H](C)CC [Analogue 5] (Heptanoyl-[Dab]I[Dab][dF]L[Dab][dL]LS-NH2) | – | – | – | 8 to 16 | – | 8 to 16 | 16 to 32 | – | – | 1 to 4 | 2 to 4 | 0.96 ± 0.59 | 1.39 ± 0.55 | 4.86 ± 1.05 | 26.5 ± 4.45 | – | – | 1 to 4 | 16 to 32 | 8 to 16 | MBC [12]: 16 to 32 mg/L; MBC [13]: 16 to 32 mg/L |

Continued, in another order:

| MIC of rifampicin at 2 μg/mL of paenipeptin analogue [9] [μg/ml] | MIC of rifampicin at 2 μg/mL of paenipeptin analogue [10] | MIC of rifampicin at 4 μg/mL of paenipeptin analogue [10] | MIC ([1]; ATCC 19606) [mg/L] | MIC ([3]; ATCC 13883) [mg/L] | MIC ([5]; ATCC 19434) [mg/L] | MIC ([6]; ATCC 29213) [mg/L] | MIC ([7]; ATCC 43300) [mg/L] | MIC of rifampicin at 4 μg/mL of paenipeptin analogue [9] | MIC ([2]; ATCC 25922) [mg/L] | MIC ([4]; ATCC 27853) [mg/L] | SMILES | Hemolysis ([8]; 16 μg/mL) [%] | Hemolysis ([8]; 32 μg/mL) [%] | Hemolysis ([8]; 64 μg/mL) [%] | Hemolysis ([8]; 128 μg/mL) [%] | Sensitization factor (rifampicin) [9] | Sensitization factor (rifampicin) [10] | Minimum inhibitory concentration ([2]; ATCC 25922) [mg/L] | Minimum inhibitory concentration ([6]; ATCC 29213) [mg/L] | MBC [11] [mg/L] | further results |
| --- | --- | --- | --- | --- | --- | --- | --- | --- | --- | --- | --- | --- | --- | --- | --- | --- | --- | --- | --- | --- | --- |
| – | – | – | – | – | – | 16 to 32 | 16 to 32 | – | 1 to 4 | 2 to 4 | CCCCCCC(=O)N[C@@H](CCN)C(=O)N[C@@H](Cc1ccccc1)C(=O)N[C@@H](CCN)C(=O)N[C@H](Cc1ccccc1)C(=O)N[C@@H](CC(C)C)C(=O)N[C@@H](CCN)C(=O)N[C@H](CC(C)C)C(=O)N[C@@H](CC(C)C)C(=O)N[C@@H](CO)C(N)=O [Analogue 6] (Heptanoyl-[Dab]F[Dab][dF]L[Dab][dL]LS-NH2) | 0.14 ± 0.20 | 0.39 ± 0.30 | 2.03 ± 0.44 | 8.34 ± 1.80 | – | – | 1 to 4 | 16 to 32 | 8 to 16 | MBC [12]: 16 to 32 mg/L |
| – | 0.0625-0.125 μg/ml | 0.0625 μg/ml | >32 | >32 | >32 | ≥32 | >32 | 0.0313-0.0625 μg/ml | >32 | 16 to 32 | CCCCCCCC(=O)N[C@@H](CCN)C(=O)NC(CCN)C(=O)N[C@@H](CCN)C(=O)N[C@H](Cc1ccccc1)C(=O)N[C@@H](CC(C)C)C(=O)N[C@@H](CCN)C(=O)N[C@@H](C(=O)N[C@@H](CC(C)C)C(=O)N[C@@H](CCN)C(N)=O)C(C)C (stereo partly shown) [Analogue 10] (Octanoyl-[Dab][ξDab][Dab][dF]L[Dab][dV]L[Dab]-NH2) | 0.37 ± 0.62 | 0.38 ± 0.62 | 0.41 ± 0.53 | 0.80 ± 0.40 | 256-512 | 256 | – | – | – | – |
| >0.125 | >0.125 μg/ml | >2 μg/ml | >32 | >32 | ≥32 | >32 | >32 | >0.125 μg/ml | >32 | >32 | CCCCCCCCCC(=O)N[C@@H](CCN)C(=O)N[C@H](C(=O)N[C@H](C(=O)N[C@H](CC(C)C)C(=O)N[C@@H](CC(C)C)C(=O)N[C@@H](CCN)C(=O)N[C@@H](C(=O)N[C@@H](CC(C)C)C(=O)N[C@@H](CO)C(N)=O)C(C)C)C(C)O)[C@@H](C)CC (stereo partly drawn) [Analogue 13] (Decanoyl-[Dab]I[Thr(3ξ)][dL]L[Dab][dV]LS-NH2) | 1.25 ± 0.71 | 5.06 ± 1.14 | 10.0 ± 1.03 | 24.9 ± 2.71 | – | – | – | – | – | – |
